System: mTOR signaling
Assay: Immunoblot and cap-complex analysis of mTOR signaling (S6K1, S6, 4E-BP1, GSK-3) in MEFs
Format: cell-based, mouse
Description: FIG. 6A: Subconfluent cycling littermate-matched primary MEFs of the indicated genotype were left untreated (NT) or were treated with 2 mM AICAR for 2 h. Total cell extracts were immunoblotted for phospho-Thr172 AMPK (P-AMPK), phospho Ser79 ACC (P-ACC), phospho-Thr389 S6K1 (P-S6K1), phospho-Ser9 GSK-3b (P-GSK-3), and phospho-Ser235/236 S6 ribosomal protein (P-S6). FIG. 6B: An immortalized LKB1−/− MEF cell line was reconstituted with vector (v), wild-type (wt) or kinase-dead (kd) human LKB1-expressing retroviruses. Cells were treated as in FIG. 6A. eIF4E was used as a loading control. *represents a cross-reactive band with the anti-LKB1 antisera as characterized previously (Shaw et al. (2004) Proc. Natl. Acad. Sci. USA 101, 3329-3335). FIG. 6C: Endogenous 5′ cap complexes were isolated from LKB1 primary MEFs as in A. 10% of the total cell lysate is shown in the left panels; cap complexes purified on 7-methyl sepharose are shown in right panels. Each were immunoblotted with total 4E-BP1 and eIF4E antibodies. eIF4E is shown as a loading control. FIG. 6D: Hela cells (which are LKB1-deficient) were transiently transfected with vector, FLAG-tagged wild-type, or kinase-dead LKB1 along with an HA-tagged S6K1 or an HA-tagged 4E-BP1 construct, then treated where indicated with 2 mM AICAR for 2 h. S6K1-immunoprecipitates were immunoblotted for activating phosphorylation of S6K1 as before, as well with anti-HA to control for levels. Lysates were immunoblotted with anti-FLAG to detect levels of LKB1 and with anti-HA to detect phosphorylation induced changes in 4E-BP1 mobility on SDS-PAGE.
FIGS. 8A and 8B: Littermate matched LKB1- or TSC2-deficient MEFs were compared to wild-type MEFs in their response to a number of stress stimuli known to inhibit mTOR signaling (wild-type cells denoted +, −/− cells simply−). mTOR signaling was examined by immunoblotting for phospho-S6 as in FIG. 6. Activation of Akt and Erk were examined using their specific activation state phospho-specific antibodies (Ser473 for Akt, Thr202/Tyr204 for Erk). As before, eIF4E is used as a loading control. All MEFs were serum-deprived in DMEM alone for 24 h. Indicated samples were then placed in fresh media containing 10% serum, with or without […] rapamycin or 2 mM AICAR, all for 90 min. Amino acid deprivation (-AA) was performed by placing the serum-starved cells into D-PBS with 10% dialyzed serum for 90 min. […] Cells were placed in normal media, glucose free media with 10% dialyzed serum, or glucose-free media with 10% dialyzed serum containing 20 nM rapamycin for 6 or 24 h as indicated. LKB1 genotype indicated at bottom. eIF4E is used as a loading control. FIG. 8D: Cells were treated for 24 h as in FIG. 8C, and viability was quantified by MTT assays performed in triplicate on cells of the indicated genotypes. Cell death is expressed as a percentage of the untreated controls.
Cells were cultured and retrovirally infected as previously described (Shaw et al. (2004), Proc. Natl. Acad. Sci. USA 101:3329-3335). […] Cells were serum-starved in DMEM without serum 14 h post-transfection, then 8 h later the media was replaced with fresh DMEM with 10% FBS or DMEM with 10% FBS and 2 mM AICAR. For the MEF experiments in FIG. 6: cells were plated at 1×10^6 cells/10 cm dish, then the next day the media was replaced with fresh DMEM with 10% FBS or DMEM with 10% FBS and 2 mM AICAR. For the MEF experiments in FIG. 8A,B: 1×10^6 cells of each genotype were plated and the next day serum-starved for 24 h. Cells were either lysed as such or their media replaced with fresh DMEM with 10% FBS, DMEM with 10% FBS and 2 mM AICAR, DMEM with 10% FBS and 20 nM rapamycin, or D-PBS with 10% dialyzed FBS for 90 mins.

Compound: NC(=O)c1ncn([C@@H]2O[C@H](CO)[C@@H](O)[C@H]2O)c1N [AICAR, 5-aminoimidazole-4-carboxamide 1-β-D-ribofuranoside]
- S6K1 activity (Lkb1-/- MEFs, serum-starved 24 h, 10% serum with 2 mM AICAR for 90 min): failed to down-regulate S6K1 activity
- hypophosphorylated 4E-BP1 in total cell lysates (Lkb1-deficient cells, AICAR treatment): near absence of hypophosphorylated 4E-BP1
- levels of active S6K1 (Lkb1-deficient fibroblasts, 2 mM AICAR for 2 h): remained high
- growth factor signaling to GSK-3 (MEFs, 2 mM AICAR for 2 h): unaffected
- S6K1 activity (wild-type MEFs, 2 mM AICAR for 2 h): inhibited
- level of hypophosphorylated 4E-BP1 (wild-type MEFs, AICAR treatment): significantly increases
- 4E-BP1 association with the cap complex (wild-type MEFs, AICAR treatment, 7-methyl GTP sepharose): increased 4E-BP1 association with the cap complex

— patent US20120122991A1, “METHOD FOR TREATING CANCER BY INCREASING AMP-ACTIVATED KINASE ACTIVITY” (Dana-Farber Cancer Institute, Inc., priority 2003, published 2012)
